Results published in article PMC10121968, “Fosgonimeton, a Novel Positive Modulator of the HGF/MET System, Promotes Neurotrophic and Procognitive Effects in Models of Dementia” (Neurotherapeutics, 2022).
Non-standard residues stand in square brackets, D forms with d. Residues, ends and D or L forms follow the SMILES beside them. *: point of attachment. Hexanoyl = CCCCCC(=O)*; Ahx = NCCCCCC(=O)O

Legend:
IL-6 = IL-6 release in LPS-challenged THP-1 macrophages (HTRF); format: cell-based, human; settings: 1 µM, 20 min pretreatment, LPS 50 ng/mL 24 h, vs LPS + vehicle
Description: To determine the effect of fosgo-AM on LPS-induced cytokine release, we sought to determine the levels of interleukin-1β (IL-1β), interleukin-6 (IL-6), and tumor necrosis factor-α (TNF-α) in LPS-challenged THP-1–differentiated macrophages in the presence and absence of fosgo-AM. THP-1 monocytes were grown at 37 °C, 5% CO2 in Roswell Park Memorial Institute (RPMI) medium + 10% FBS until approximately 80% confluent. Cells were seeded in polystyrene-treated 96-well cell culture plates at approximately 50,000 cells/well in 100-µL complete media. 100 µL Phorbol myristate acetate was then added to each well for a final concentration of 100 ng/mL. The plate was then incubated for 3 days at 37 °C, 5% CO2 to prime the monocytes into macrophages. […] For cytokine quantification, cell culture supernatant was assayed by HTRF kits to assess levels of IL-1β (Human IL-1β kit, #62HIL1BPEG, Cisbio, Codolet, France) and IL-6 (Human IL-6 kit, 62HIL06PET, Cisbio, Codolet, France), and by ELISA (Human TNF-α ELISA kit, KHC3011, ThermoFisher, Waltham, Massachusetts) to determine the levels of TNF-α. […] Fluorescence emission at 2 different wavelengths (665 nm and 620 nm) were measured on an Envision plate reader (PerkinElmer, Waltham, Massachusetts), and HTRF ratio of the acceptor and donor emission signals for each well was calculated as follows: HTRF ratio = (665 nm/620 nm) × 10,000. […]

[1] = test system: primary rat hippocampal neurons; assay: Synaptogenesis assay (synaptobrevin-II staining); format: cell-based; settings: 8 days, vs vehicle
Description: On day 0, rat hippocampal neurons from newborn pups were isolated and cultured in brain neuronal culture medium (neurobasal medium supplemented with 5% FBS, 2% B-27 supplement, and 0.003% gentamycin) at 37 °C under 5% CO2. At 1 day in vitro (DIV1), cells were transferred to a poly-D-lysine–coated 24-well plate at approximately 10,000 cells/well. Cells were then grown in […] of serum-free medium and treated with the following: 0.1% dimethyl sulfoxide (DMSO; vehicle), 10 nM dihydrotestosterone (positive control), 10 nM fosgo-AM, 1 nM fosgo-AM, 5 ng/ml HGF, or 5 ng/ml HGF + 1 nM fosgo-AM. All treatments contained a final concentration of 0.1% DMSO. For the neurite outgrowth assay, treatment media were refreshed on DIV3, and cells were processed for analysis on DIV4. For the synaptogenesis assay, treatment media were refreshed on DIV3 and DIV6, and cells were processed for analysis on DIV8. Processing for both the neurite outgrowth and the synaptogenesis assays was performed as follows: media were removed, and cells were fixed with 100% methanol for 20 min at RT before methanol was aspirated and each well was washed twice with Dulbecco’s phosphate-buffered saline (DPBS). Cells were permeabilized using 0.02% […] (ThermoFisher, Waltham, Massachusetts) in DPBS for 2 min at RT without shaking, and plates were blocked with 5% bovine serum albumin (BSA) in DPBS for 1 h at RT. […] Ten images of single cells from a total of 2 assays were analyzed using NeuroJ plug-in for ImageJ to assess neurite outgrowth, as neurite length and the number of branches per neuron were counted for each cell. For the synaptogenesis assay, synaptic count (number of synapses) and synaptic strength (relative abundance of presynaptic vesicles per synapse as measured by synaptobrevin-II fluorescence intensity) were quantified for each cell. Data were assessed for normality (Shapiro–Wilk) and homoscedasticity (Brown-Forsythe). […]

CCCCCC(=O)N[C@@H](Cc1ccc(O)cc1)C(=O)N[C@H](C(=O)NCCCCCC(N)=O)[C@@H](C)CC [fosgo-AM] (Hexanoyl-Tyr-Ile-[Ahx]-NH2)
IL-6 release (IL-6): significant decrease | number of synapses (synaptic count) ([1]; 1 nM fosgo-AM + 5 ng/mL HGF): significantly increased the number of synapses | synaptobrevin-II immunofluorescence intensity (synaptic strength) ([1]; 1 nM fosgo-AM + 5 ng/mL HGF): significantly enhanced immunofluorescence intensity of synaptobrevin-II | synaptobrevin-II immunofluorescence intensity (synaptic strength) ([1]; 1 nM): significantly enhanced immunofluorescence intensity of synaptobrevin-II
